US20250099553A1, “COMPOSITION AND METHODS FOR MODULATION OF ELOVL2” (YOUHEALTH BIOTECH, LIMITED, priority 2018, published 2025)

Legend:
human fibroblast cells = system: human fibroblast cells
Procedure: The human RPE cells were primarily derived from healthy donors. The human fibroblast cells are purchased from ATCC (WI-38, ATCC® CCL-75) human fibroblasts were maintained in Dulbecco's Modified Eagle Medium (DMEM) supplemented with 10% fetal bovine serum and 50 U/ml penicillin-streptomycin. Human RPE cells were cultured with DMEM/F-12 (1:1) supplemented with 10% fetal bovine serum and 50 U/ml penicillin-streptomycin.
RNA was extracted by RNeasy Mini Kit (QIAGEN, 74104) and the RNase-Free DNase Set (QIAGEN, 79254) was used to ensure no DNA contamination. Reverse transcription was performed by High Capacity cDNA Reverse Transcription Kit (ABI, 4368814). SYBR-qPCR was performed by Power SYBR® Green PCR Master Mix (ABI, 4367659). All primers were designed using PrimerPremier5 and synthesized from Integrated DNA Technologies.

[1] = system: Elovl2 knock-down human RPE cells (KE); assay: Drug rescue of Elovl2 knockdown (KE) human RPE cells, AMD phenotype (immunofluorescence, qPCR); type: cell-based; details: 5 mM nicotinamide, 48 h, FIGS. 5I-5J
Procedure: For Elovl2 knockdown, lentivector (pLL3.7-shElovl2) exogenously expressing shRNA (5′-[…]-3′) was made and transfected into 293T cells (ATCC) using Lipofectamin 3000 reagent (Thermo Fisher) to obtain lentivirus. To build the Elovl2-knockdown cell line, human RPE cells (seeded a night ahead in a concentration of 5*10^5 cells/well) in a 6-well plate were infected with the lentivirus containing Elovl2-shRNA for 24h, followed by 24 h of equilibration. Drug treatments were performed at the time of 48 h post-infection. To rescue the Elovl2 knockdown cells, 10 μg/ml curcumin (Sigma, C7727) or 5 mM nicotinamide (Sigma, N0636) or DMSO were added in the cell culture medium and the cells were treated for 48 h.
Murine tissue sample were freshly collected upon perfusion, followed by overnight PFA fixation and sucrose dehydration. Human fibroblast cells, human RPE cells and murine primary cells were fixed with 4% PFA for 1 h. To perform immunofluorescence, the slide was rinsed in PBS for 5 minutes, blocked in blocking buffer (PBS with 1% BSA, 0.1% Tween-20) for 20 minutes at room temperature (RT), and incubated with primary antibody in blocking buffer for 1 hour at RT. After 3 washes with 0.1% Tween-20 in PBS, the slide was incubated with secondary antibody in blocking buffer for 1 hour at RT. The slides were mounted with DAPI-Vectashield solution (Vector laboratories). Images were taken with a confocal microscope (LSM 780). To estimate the mitochondrial conditions, human RPE cells and murine primary cells were incubated with either MitoSOX (5 uM) according to manufacturer's instructions.

| Compound | methylation on biological aging marker Elovl2 (human fibroblast cells; H2O2 treated human fibroblast cells, MeDip-qPCR) | senescent markers (human fibroblast cells; H2O2 treated human fibroblast cells, FIGS. 1D-1E, 6E-6F) | expression of Elovl2 (human fibroblast cells; after H2O2 treatment, groups with DNMT1, DNMT3A and DNMT3B knockdown but not CHD4 knockdown, FIG. 6H) | AMD markers [1] | expression of cellular senescence genes [1] | mitochondrial dysfunction [1] |
| --- | --- | --- | --- | --- | --- | --- |
| OO [H2O2, hydrogen peroxide] | Increased methylation | increase of senescent markers | decreased |  |  |  |
| NC(=O)c1cccnc1 [nicotinamide] |  |  |  | reduction of AMD markers | reversed the abnormal expression of cellular senescence genes | reduced mitochondrial dysfunction |
